Test results as given in US11446299B2, “Carbazole EHop-016 derivatives as anticancer and anti-migratory agents” (UNIVERSITY OF PUERTO RICO, priority 2017, dated 2022).

Columns and labels:
breast cancer cell = experiment: Breast cancer cell viability (cell line not given); type: cell-based; details: breast cancer cells, at concentrations ≥1 μM
MCF-7 cancer cells = experiment: Sulforhodamine B (SRB) growth inhibition assay; type: cell-based; details: Homo sapiens, MCF7, 24 h treatment, mean of triplicate, SD <10%
Procedure, shortened: (§1)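 Cells at 1.9×10^4/well exposed to compounds at 50, 25, 12.5, 6.3 and 1.6 μM in triplicate for 24 hrs at 37° C; DMSO 0.1% as negative control. TCA-fixed, SRB-stained, absorbance at 510 nm; GI50 from variable-slope sigmoidal dose-response curves.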

MDA-MB-231 cancer cells = experiment: Sulforhodamine B (SRB) growth inhibition assay; type: cell-based, human
Procedure, shortened: as §1

[1] = HV-118 toxicity assessment in mice; type: in vivo; details: 1 mg/kg BW
Procedure: FIG. 19 (A-C). HV-118 toxicity assessment. Blood collected at necropsy was used for FIG. 19A. complete blood count (CBC) analysis and FIG. 19B. determination of serum levels of liver enzymes Alanine Aminotranferase (ALT), Aspartate Aminotransferse (AST), and Alkaline phosphatase (ALP). N=4-5 mice/group; error bars represent ±SEM. FIG. 19C. Average mouse weight as a function of days following HV-118 administration. N=13-15 mice/group.
An in vivo study was performed to assess HV-118 toxicity and test its effects in mammary tumor growth and metastasis. Immunocompromised mice were inoculated with green fluorescent protein (GFP)-tagged MDA-MB-231 cells. After tumors reached an average size of 80 mm^3, mice (n=15/group) were administered with control or HV-118 at 1 mg/kg body weight (BW) by intraperitoneal (i.p.) injection every day from Monday to Friday for approximately 2 months. The effects of HV-118 on tumor growth were monitored weekly by in situ fluorescence image analysis (starting from day 1 of treatment). Mammary tumor growth was quantified using Image J software, as the pixel intensity (integrated density) determined from digital tracing of the fluorescent tumor area at each imaging session and calculated as a function of the fluorescence intensity on day one of treatment. At necropsy, blood was collected, and organs were dissected and stored in liquid nitrogen. Metastatic foci were quantified for fluorescence intensity and area of fluorescence (lesion size) for each organ by Image J analysis of digital images from a fluorescence stero microscope. […] Toxicity was assessed by: 1) performing a hematologic profile (complete blood count (CBC) analysis), 2) measuring serum levels of liver enzymes Alanine Aminotranferase (ALT), Aspartate Aminotransferse (AST), and Alkaline phosphatase (ALP), and 3) monitoring animal weight throughout the study.

GFP-MDA-MB-231 cells = experiment: Mammary tumor growth and metastasis in immunocompromised mice; type: in vivo; details: 1 mg/kg BW i.p., Monday to Friday, approximately 2 months
Procedure: FIG. 18 (A-D). Effect of HV-118 on mammary tumor growth. Severe combined immune deficiency (SCID) mice were inoculated at the mammary fat pad with GFP-MDA-MB-231 cells and treated with 0 (Vehicle) or 1 mg/kg BW HV-118 (5× a wk). FIG. 18A. Upper panel, representative images and lower panel, average relative tumor growth on last day. FIG. 18B. Relative tumor growth as a function of days following HV-118 administration. Lungs and livers were removed at necropsy and imaged for fluorescent metastatic foci. FIG. 18C. Representative organs under fluorescence microscopy for 0 (Vehicle) and 1 mg/kg BW HV-118 treatment. FIG. 18D. […]
Preliminary data supporting HV-118 as a potent inhibitor of Rac activation in breast cancer cells was confirmed. […] Tumor growth and metastasis were assessed by fluorescent imaging. HV-118 toxicity was also determined.
An in vivo study was performed to assess HV-118 toxicity and test its effects in mammary tumor growth and metastasis. […] The effects of HV-118 on tumor growth were monitored weekly by in situ fluorescence image analysis (starting from day 1 of treatment). Mammary tumor growth was quantified using Image J software, as the pixel intensity (integrated density) determined from digital tracing of the fluorescent tumor area at each imaging session and calculated as a function of the fluorescence intensity on day one of treatment. […]

Row | Structure (SMILES) | inhibition of breast cancer cell viability (breast cancer cell) | GI50 (MCF-7 cancer cells) | GI50 (MDA-MB-231 cancer cells; Homo sapiens, MDA-MB-231, SRB assay, 24 h treatment, mean of triplicate, SD <10%) | anti-proliferative activity / cytotoxicity in words (MDA-MB-231 cancer cells; MDA-MB-231, concentrations ≤50 μM) | toxicity at the tested dose [1] | hematologic profile (complete blood count) ([1]; blood at necropsy) | serum levels of ALT, AST, or ALP ([1]; blood at necropsy) | mice weights ([1]; throughout the study) | reduction in metastasis to lung and liver (GFP-MDA-MB-231 cells) | reduction in tumor growth (GFP-MDA-MB-231 cells)
1 | CCn1c2ccccc2c2cc(C(=O)Nc3cccnc3N3CCOCC3)ccc21 [Compound 11b, 9-Ethyl-9H-carbazole-3-carboxylic Acid (2-morpholin-4-yl-pyridin-3-yl)-amide] | 45% | > 50 µM | > 50 µM | minimal cytotoxicity |  |  |  |  |  | 
2 | CCn1c2ccccc2c2cc(Nc3cc(C)nc(Cl)n3)ccc21 [HV-118, (2-Chloro-6-methyl-pyrimidin-4-yl)-(9-ethyl-9H-carbazol-3-yl)-amine] |  |  |  |  | no toxicity | no changes | no changes | no changes | > 90% | 30%
